Columns and labels:
LC3-II = assay: Autophagy activity of epidermal keratinocytes (LC3-II accumulation with chloroquine diphosphate, Western blotting); assay type: cell-based, human; conditions: chloroquine diphosphate 10 μM, 24 hours, FIG. 18
Method: Normal human neonatal foreskin-derived epidermal keratinocytes (Human Epidermal Keratinocytes, neonatal (HEKn) lightly; keratinocytes) were purchased from Thermo Fisher Scientific. […] The keratinocytes were cultured in a grow medium (Epilife) epidermal keratinocytes (Thermo Fisher Scientific) supplemented with a growth additive (Humedia-KG) (manufactured by Kurabo Industries Ltd.) at 37° C. in 5 vol % CO2 atmospheric conditions.
Keratinocytes were seeded in a 6-well plate at a density of 1.5×10^5 cells/well (2 mL/well). The following day, proguanil was added so as to obtain a final concentration of 0.3, 1, 3, 10 or 30 μM. Culture was performed at 37° C. in 5 vol % CO2 atmospheric conditions. As a control, the same amount of DMSO was added. […] The following day, Chloroquine diphosphate attached to LC3B Antibody Kit for Autophagy (Thermo Fisher Scientific) was added so as to obtain a final concentration of 10 μM. Culture was performed at 37° C. in 5 vol % CO2 atmospheric conditions for 24 hours. After completion of the culture, SDS-PAGE and western blotting were performed in accordance with the method as mentioned above. As a primary antibody, anti-LC3B (1:1000) attached to the kit mentioned above was used. […] Expression of β-actin as the internal standard was evaluated by using monoclonal antibody specific for β-actin (Sigma-Aldrich, 1:5000).

LC3-II and p62 proteins [1] = assay: Autophagy markers LC3-II and p62 in epidermal cells (Western blotting); assay type: cell-based, human; conditions: berberine 10, 30 or 60 μM, 24 hours, FIG. 7
Method: As a part of elucidation of the skin color darkening action of berberine, the effect on autophagy in epidermal cells was examined. Berberine was added in a medium for the epidermal cells seeded in a 6-well plate at a final concentration of 10, 30 or 60 μM and the epidermal cells were cultured for 24 hours. Protein was extracted and subjected to Western-blotting analysis to determine the expression levels of LC3-II and p62 proteins serving as markers for autophagy.
As a part of elucidation of skin color darkening action of phenformin and berberine, an effect of phenformin and berberine on melanosome decomposition in, epidermal cells was examined. The epidermal cells were isolated from a foreskin tissue obtained from a Skin Bank of the United States, National Disease Research Interchange (NDRI) in accordance with a predetermined method, and cultured. Melanosomes were prepared from MNT-1 cell strain in accordance with a predetermined method (Murase et al. (2013), J Invest Dermatol, 133: 2416-2424). A predetermined amount of melanosomes was added to epidermal cells and the cells were cultured for 24 hours. Melanosome prepared from MNT-1 cell strain cultured in an area of 35 cm^2 was added per well of the 6-well plate. […]

AMPK = conditions: Non-Patent Literature 2; cited from earlier work
Pmel17 = assay: Melanosome decomposition in epidermal cells that incorporated MNT-1 melanosomes (Pmel17 Western blotting); assay type: cell-based, human; conditions: 24 hours, FIG. 8
Method: As a part of elucidation of skin color darkening action of phenformin and berberine, an effect of phenformin and berberine on melanosome decomposition in, epidermal cells was examined. The epidermal cells were isolated from a foreskin tissue obtained from a Skin Bank of the United States, National Disease Research Interchange (NDRI) in accordance with a predetermined method, and cultured. Melanosomes were prepared from MNT-1 cell strain in accordance with a predetermined method (Murase et al. (2013), J Invest Dermatol, 133: 2416-2424). A predetermined amount of melanosomes was added to epidermal cells and the cells were cultured for 24 hours. Melanosome prepared from MNT-1 cell strain cultured in an area of 35 cm^2 was added per well of the 6-well plate. After the cells were washed with PBS, the epidermal cells which had incorporated melanosome therein were added with phenformin at a final concentration of 100 or 200 μM, berberine at a final concentration of 10, 30 or 60 μM and a Goldenseal extract rich in berberine at a final concentration 0.2 or 0.5% (v/v), and the cells were cultured for a further 24 hours. Protein was extracted and subjected to Western-blotting analysis to determine the expression level of Pmel17, a major protein constituting melanosome.

human skin tissue [2] = assay: Fontana-Masson staining of cultured human skin tissue (melanin deposition); assay type: cell-based
Method: (1) A normal human skin tissue obtained at the time of a surgical operation was purchased from a Skin Bank of the United States, National Disease Research Interchange (NDRI). The human skin tissue, from which subcutaneous fat was previously removed, was cut into pieces having a size of about 1 cm×about 1 cm by knife and cultured by using a 6-well plate at 37° C. under a 5% CO2 atmosphere. Advanced-DMEM medium containing 10% (v/v) Fetal Bovine Serum (FBS) (Life Technologies, respectively) was used for culture. (3) Next, the skin tissue cultured was subjected to Fontana-Masson staining to observe deposition of melanin. In the staining, Fontana-Masson Stain Kit manufactured by American […] Scientific, Inc. was used.

human skin tissue [3] = assay: Skin color darkening in cultured human skin tissue (appearance observed and photographed); assay type: cell-based
Method: (§1) (1) A normal human skin tissue obtained at the time of a surgical operation was purchased from a Skin Bank of the United States, National Disease Research Interchange (NDRI). The human skin tissue, from which subcutaneous fat was previously removed, was cut into pieces having a size of about 1 cm×about 1 cm by knife and cultured by using a 6-well plate at 37° C. under a 5% CO2 atmosphere. Advanced-DMEM medium containing 10% (v/v) Fetal Bovine Serum (FBS) (Life Technologies, respectively) was used for culture.
(2) The human skin tissue prepared in accordance with the method described in the above (1) was allowed to stand still in the 6-well plate. Then, phenformin was added in the medium so as to have a final concentration of 300 μM and tissue culture was initiated. The medium replacement was performed every 2 to 3 days. Six days or eight days later, the appearance of the skin tissue was observed and photographed.
A human skin tissue prepared in accordance with the method of Example 1 (1) was allowed to stand still in a 6-well plate. Then, phenformin was added in a medium at a final concentration of 100, 200 or 300 μM and tissue culture was initiated. Four days later, the appearance of the skin tissue was observed and photographed.
Skin tissues prepared in accordance with the method of Example 1 (1) were allowed to stand still in 6-well plates. […]

Pmel17 protein = assay: Western blotting of Pmel17 protein in cultured human skin tissue; assay type: cell-based; conditions: cultured 6 days with or without phenformin, FIG. 3A
Method: as §1
The skin tissue prepared in accordance with the method of Example 1 (1) was allowed to stand still in a 6-well plate and cultured in the presence or absence of phenformin for 6 days. Protein was extracted from the skin tissue and used for quantitative analysis of Pmel17 protein, which is a major protein constituting a melanosome, by Western-blotting. Using a mouse anti-human Pmel17 antibody (DAKO) as a primary antibody and a goat anti-mouse IgG antibody as a secondary antibody, signals were detected by using ECL prime reagent (GE Healthcare) and ODYSSEY Fc Imaging System (LICOR). Beta-actin protein as an internal standard was detected in the same manner.

LC3-II and p62 proteins [4] = assay: Western blotting of autophagy markers LC3-II and p62 in cultured human skin tissue; assay type: cell-based; conditions: 4 days, phenformin at different concentrations, FIG. 3B
Method: as §1
Further, the skin tissue prepared in accordance with the method of Example 1 (1) was allowed to stand still in a 6-well plate and cultured in the absence or presence of phenformin at a different concentration for 4 days. Proteins were extracted from the skin tissues and subjected to Western-blotting analysis. In this manner, the expression levels of LC3-II and p62 proteins, which are localized in autophagosome membrane and finally decomposed by autophagy, were determined. A mouse anti-human LC3 antibody (Cosmo Bio) and rabbit anti-human p62 antibody (MBL International) were used as primary antibodies.

LC3-II and p62 proteins [5] = assay: Autophagy markers LC3-II and p62 in cultured human hair follicle (Western blotting); assay type: cell-based; conditions: phenformin 200 μM, FIG. 11
Method: A human hair follicle was surgically isolated from a normal human scalp tissue ([…]), which was obtained at the time of surgical operation, and given by a USA dermatologist. The isolated human hair follicle was cultured at 37° C. under a 5% CO2 atmosphere in William E medium supplemented with 20 μg/mL insulin (Sigma-Aldrich), 40 ng/mL hydrocortisone (Sigma-Aldrich), 2 mM L-glutamine (Life Technologies) and a 1% (v/v) penicillin/streptomycin solution (Life Technologies) (all were final concentrations). The isolated human hair follicle was allowed to stand still in a 24-well plate and phenformin was added at a final concentration of 200 μM in the medium. Tissue culture was initiated. Medium replacement was performed Day 1 and Day 3 after the initiation of culture. Follicular tissue at Day 5 after the initiation of culture was embedded in OCT compound (TissueTek) and frozen. These follicular tissues were subjected to Fontana-Masson staining and deposition of melanin was observed.
From the human hair follicle cultured in accordance with the method of Example 8, protein was extracted and subjected to Western-blotting analysis. In this manner, expression levels of autophagy markers, i.e., LC3-II and p62 proteins, were analyzed.

human hair follicle = assay: Hair color darkening in cultured human hair follicle (Fontana-Masson staining); assay type: cell-based; conditions: phenformin 200 μM, Day 5, FIG. 10
[6] = system: AMPK (AMP-activated protein kinase); conditions: human embryonic kidney cells (HEK 293 T cells); Non-Patent Literature 1; cited from earlier work

SMILES: CCN(CC)CCCC(C)Nc1ccnc2cc(Cl)ccc12 (stereo not drawn) [Chloroquine diphosphate]
- accumulation of LC3-II (LC3-II): Accumulation of LC3-II was induced

SMILES: COc1ccc2cc3[n+](cc2c1OC)CCc1cc2c(cc1-3)OCO2 [berberine, Berberine]
- expression level of LC3-II protein (LC3-II and p62 proteins [1]): LC3-II and p62 proteins are accumulated in a berberine dose-dependent manner
- expression level of p62 protein (LC3-II and p62 proteins [1]): LC3-II and p62 proteins are accumulated in a berberine dose-dependent manner
- AMPK activation action (AMPK): has an AMPK activation action
- expression level of Pmel17 (Pmel17; berberine 10, 30 or 60 μM): accumulation of Pmel17 protein in a dose-dependent manner was observed
- deposition of melanin on the epidermal layer (tissue staining) (human skin tissue [2]; berberine 10 or 30 μM and 30 or 100 μM, FIGS. 5 and 6): Deposition of melanin on the epidermal layer was confirmed
- darkening of skin color (human skin tissue [3]; berberine 10 or 30 μM (Caucasian) and 30 or 100 μM (African American), six or four days, FIGS. 5 and 6): darkening of skin color was induced in a berberine dose-dependent manner

SMILES: N=C(N)NC(=N)NCCc1ccccc1 [phenformin, Phenformin]
- amount of Pmel17 protein (Pmel17 protein): amount of Pmel17 protein is increased
- expression level of LC3-II protein (LC3-II and p62 proteins [4]): accumulation on both markers was observed
- expression level of p62 protein (LC3-II and p62 proteins [4]): accumulation on both markers was observed
- expression level of LC3-II protein (LC3-II and p62 proteins [5]): Accumulation of LC3-II and p62 proteins by addition of phenformin was observed
- expression level of p62 protein (LC3-II and p62 proteins [5]): Accumulation of LC3-II and p62 proteins by addition of phenformin was observed
- expression level of Pmel17 (Pmel17; phenformin 100 or 200 μM): accumulation of Pmel17 protein in a dose-dependent manner was observed
- hair color darkening (human hair follicle): Apparent hair color darkening was induced
- accumulation of melanin in the epidermis (human skin tissue [2]; phenformin 300 μM, skin tissue, FIGS. 2A, 2B): significant accumulation of melanin in the epidermis was observed
- melanin deposition (human skin tissue [2]; phenformin 100, 200 or 300 μM, 4 days, data not shown): melanin deposition, which is correlated with a change in skin color, was confirmed
- skin color darkening (dose dependent) (human skin tissue [3]; phenformin 100, 200 or 300 μM, 4 days, FIG. 4): Recognizable darkening was observed in a dose-dependent manner
- autophagy [6]: activates autophagy through activation of AMPK
